Data on one compound can be found in patent US11167007B2, “FOXM1 modulators and uses thereof” (City of Hope, priority 2016, dated 2021).

Experiment [1] addresses T1, AR with a 24 glutamine tract (normal) (Homo sapiens, UniProt P10275, DUP80-80).
T1 construct: expressed in transfected cells; host or cells: HEK293
Description: Luciferase reporter assay in HEK293 cells transfected with ARQ24. The following applies: HEK293, AR 24 glutamines, FIG. 2C. The format is cell-based. From the text:
(§1) Luciferase Reporter Assay. Cells were transfected using Lipofectamine Plus (Invitrogen) with a normalization plasmid (pRL-SV40, Promega) and an androgen responsive plasmid (MMTV-luciferase or PSA-luciferase) as described in Jones et al, ACS Chem Biol, 3(7):412-8 (2008), and, where indicated, with an shRNA plasmid targeting FOXM1 (adapted for mouse FOXM1 sequence targeting) a scrambled control shRNA plasmid, or ARQ24 or ARQ65 plasmids. Christensen et al, PLoS One, 8(1):e54556 (2013). The following day, cells and drugs were distributed to 96-well plates. 24 hours later, luciferase activity was assessed by a dual luciferase assay kit (Promega) on the Tecan plate reader. Samples were run in quadruplicates and a Student's t test was performed to determine significance, where p<0.05 was considered significant.
SBMA is caused by the activity of polyglutamine-expanded AR, and experiments were conducted to investigate the effects of thiostrepton against polyglutamine-expanded AR. AR-negative HEK293 cells were transfected with plasmids encoding AR with a 24 glutamine tract (normal) or with a 65 glutamine tract (disease associated). The polyglutamine-expanded AR was less transcriptionally active than the normal AR, as has been previously documented for such constructs. Kazemi-Esfarjani et al, Hum Mol Genet, 4:523-527 (1995).

Another experiment has as its system AR-FOXM1 co-localization. The format is cell-based, murine. The following applies: GT1-7 CARY cells, 24 hours, FIG. 4B.
The target of a further experiment is T2, AR (Rattus norvegicus, UniProt P15207).
T2 construct: endogenous in cells; host or cells: L6 myoblasts
T2 sequence (P15207 1-902): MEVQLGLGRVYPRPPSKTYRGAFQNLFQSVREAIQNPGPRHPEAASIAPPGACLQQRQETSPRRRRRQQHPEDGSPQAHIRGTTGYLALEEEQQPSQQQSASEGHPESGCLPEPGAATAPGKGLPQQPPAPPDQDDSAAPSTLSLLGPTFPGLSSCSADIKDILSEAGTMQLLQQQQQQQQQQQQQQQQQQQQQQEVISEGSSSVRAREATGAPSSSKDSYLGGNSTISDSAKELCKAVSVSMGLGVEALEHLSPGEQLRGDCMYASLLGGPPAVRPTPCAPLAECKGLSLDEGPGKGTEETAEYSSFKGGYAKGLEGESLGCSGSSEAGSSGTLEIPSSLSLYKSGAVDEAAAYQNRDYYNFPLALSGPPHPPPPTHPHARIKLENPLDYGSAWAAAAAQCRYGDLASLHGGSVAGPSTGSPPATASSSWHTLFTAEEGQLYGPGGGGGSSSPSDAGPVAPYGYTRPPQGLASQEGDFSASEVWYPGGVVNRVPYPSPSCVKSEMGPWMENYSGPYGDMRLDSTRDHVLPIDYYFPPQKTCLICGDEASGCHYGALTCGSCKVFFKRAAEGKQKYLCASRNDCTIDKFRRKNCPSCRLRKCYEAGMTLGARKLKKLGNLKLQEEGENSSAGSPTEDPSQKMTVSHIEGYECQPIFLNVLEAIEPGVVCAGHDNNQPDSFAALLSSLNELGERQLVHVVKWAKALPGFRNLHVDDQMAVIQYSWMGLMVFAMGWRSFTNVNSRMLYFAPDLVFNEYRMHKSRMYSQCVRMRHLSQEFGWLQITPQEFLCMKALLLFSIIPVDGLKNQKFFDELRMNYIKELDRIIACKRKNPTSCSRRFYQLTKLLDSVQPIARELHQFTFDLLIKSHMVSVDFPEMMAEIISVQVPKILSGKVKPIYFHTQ
Description: Androgen-responsive luciferase reporter assay in L6 skeletal muscle cells. The format is cell-based. Particulars: FIG. 2B.
Excerpt: as §1
The ability of thiostrepton to inhibit AR activity in additional neuronal cells, including ReNcell CX cells PC12 cells, and in rat L6 skeletal muscle cells was examined (FIG. 2B). Donato et al, BMC Neurosci, 8:36 (2007); Yaffe, Proc Natl Acad Sci USA, 61(2):477-83 (1968).

The structures appear in SMILES notation.

T1 sequence (P10275 with tags, fused parts or gaps DUP80-80): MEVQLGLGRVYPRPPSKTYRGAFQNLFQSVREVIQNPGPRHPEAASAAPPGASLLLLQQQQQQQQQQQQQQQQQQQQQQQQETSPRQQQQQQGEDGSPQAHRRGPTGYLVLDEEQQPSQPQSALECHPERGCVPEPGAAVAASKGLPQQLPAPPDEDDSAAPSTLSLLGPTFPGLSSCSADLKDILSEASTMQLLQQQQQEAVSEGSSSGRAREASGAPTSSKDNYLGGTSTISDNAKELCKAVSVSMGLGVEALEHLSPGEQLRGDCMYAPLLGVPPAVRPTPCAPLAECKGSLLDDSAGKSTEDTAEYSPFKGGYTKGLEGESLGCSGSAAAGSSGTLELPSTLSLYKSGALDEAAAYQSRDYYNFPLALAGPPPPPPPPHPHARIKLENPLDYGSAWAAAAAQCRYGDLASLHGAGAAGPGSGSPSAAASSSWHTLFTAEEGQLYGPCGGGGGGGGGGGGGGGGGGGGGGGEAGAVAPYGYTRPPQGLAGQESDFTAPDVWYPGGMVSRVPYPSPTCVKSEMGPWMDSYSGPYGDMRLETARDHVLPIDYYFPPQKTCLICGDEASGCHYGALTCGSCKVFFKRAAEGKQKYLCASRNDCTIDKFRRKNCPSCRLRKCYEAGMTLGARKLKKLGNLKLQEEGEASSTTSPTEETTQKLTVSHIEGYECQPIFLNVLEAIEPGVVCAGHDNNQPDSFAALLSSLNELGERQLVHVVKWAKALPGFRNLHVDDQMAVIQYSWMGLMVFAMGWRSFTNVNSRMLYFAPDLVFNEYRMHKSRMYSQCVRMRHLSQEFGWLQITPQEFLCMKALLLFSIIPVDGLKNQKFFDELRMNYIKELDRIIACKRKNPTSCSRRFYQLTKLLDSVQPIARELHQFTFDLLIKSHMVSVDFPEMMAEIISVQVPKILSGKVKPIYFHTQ
Description for AR-FOXM1 co-localization: Cells were fixed in 2% paraformaldehyde prior to incubating with primary antibody (FOXM1: mouse, AbCam) overnight at 4° C. Following washing, secondary antibody (Alexa 954 goat anti-mouse, Invitrogen) was applied for 45 minutes at 37° C. After washing, slides were mounted and analyzed using a confocal microscope (Zeiss). The coloc-2 Image J plug-in (Fiji) was used to quantify co-localization of AR and FOXM1 from three independent samples using both Li's Intensity Correlation Quotient (ICQ) and Manders split coefficients co-localization values. One-way analysis of variance was applied to determine statistical significant among groups, where p<0.05 was considered significant.

Take `C=C(NC(=O)C(=C)NC(=O)c1csc(C2=N[C@@H]3c4csc(n4)[C@H]4NC(=O)c5csc(n5)[C@H]([C@](C)(O)[C@@H](C)O)NC(=O)[C@H]5CSC(=N5)/C(=C/C)NC(=O)[C@H]([C@@H](C)O)NC(=O)c5csc(n5)[C@]3(CC2)NC(=O)[C@H](C)NC(=O)C(=C)NC(=O)[C@H](C)NC(=O)[C@H]([C@@H](C)CC)N[C@@H]2C=Cc3c([C@H](C)O)cc(nc3[C@H]2O)C(=O)O[C@@H]4C)n1)C(N)=O` [thiostrepton]: the “inhibition of non-expanded AR activity (luciferase)” value in experiment [1] is given as “inhibited”. In addition, in the experiment with AR-FOXM1 co-localization, the “association (co-localization) between FOXM1 and AR” value was “not significantly affected”. Besides, the “inhibition of AR activity (luciferase)” value against AR is “not muscle cells”.
